Measurements from patent US9579328B2, “Prostaglandin and vasoconstrictor pharmaceutical compositions and methods of use” (ALLERGAN, INC., priority 2012, dated 2017).
Counter-ions that a name gives are not always drawn.

Tests used:
[1] = system: human cultured conjunctiva-derived epithelial cells; conditions: cited from earlier work; for direct stimulation of inflammatory pathways involving adhesion molecules or class II antigens: in vitro; for toxicity observed: primarily related to the concentration of benzalkonium chloride
[2] = system: patients with glaucoma or ocular hypertension; conditions: 1 year; bimatoprost 0.03% once or twice daily, timolol maleate 0.5% twice daily; subset of 310 patients; cited from earlier work
[3] = system: rabbit isolated jugular veins; experiment: Vasorelaxation in histamine-precontracted rabbit isolated jugular veins; assay type: cell-based
Excerpt: FIG. 3. Concentration-response curves for (FIG. 3A) bimatoprost and (FIG. 3B) latanoprost free acid in histamine-precontracted endothelium-intact and endothelium-denuded rabbit isolated jugular veins. Results are expressed as mean±S.E.M. of 5-6 animals. FIG. 3A adapted from Chen J et al., Invest Ophthalmol Vis Sci 2004; 45:ARVO E-Abstract 2609; FIG. 3B extends results reported in Chen J et al., Invest Ophthalmol Vis Sci 2004; 45:ARVO E-Abstract 2609; and Pharmacology Review of New Drug Application 21-275. FDA/Center for Drug Evaluation and Research. 2001;Part 1 and Part 2:1-107. Available online at http://www.fda.gov/cder/foi/nda/2001/21275_Lumigan.htm.
FIG. 4. Concentration-response curves for (FIG. 4A) bimatoprost and (FIG. 4B) latanoprost free acid in the presence or absence of indomethacin in endothelium-intact rabbit isolated jugular veins. Results are expressed as mean±S.E.M. of 7 animals and extend previous results reported in Pharmacology Review of New Drug Application 21-275. FDA/Center for Drug Evaluation and Research. 2001;Part 1 and Part 2:1-107. Available online at http://www.fda.gov/cder/foi/nda/2001/21275_Lumigan.htm.
FIG. 5. Concentration-response curves for (FIG. 5A) bimatoprost and (FIG. 5B) latanoprost free acid in the presence of 100 μM L-NAME or 100 (μM D-NAME control in endothelium-intact rabbit isolated jugular veins. Results are expressed as mean±S.E.M. of 6 animals. *P≦0.05, compared to responses in D-NAME pretreated tissues at the same concentration, paired t-test.
The pharmacological mechanism of ocular surface hyperemia elicited by bimatoprost and latanoprost was investigated using the rabbit jugular vein preparation as a quantitative in vitro model (Chen J. et al., Br J Pharmacol 1995; 116:3035-3041). In these studies, tissues were suspended in jacketed organ baths containing Krebs buffer with 1 μM indomethacin (endothelium-intact and -denuded) or in its absence (endothelium-intact) and precontracted with 3 μM histamine. Vasorelaxant and contractile activity were determined as a percentage (%) of the control tone elicited by histamine. Statistical comparisons for the vasorelaxant activity consisted of testing for significance of difference at each of the concentrations tested using the Student'-s t-test for unpaired samples (indomethacin vs no indomethacin) and paired samples (L-NAME vs D-NAME). Differences were considered statistically significant for P-values ≦0.05.
Indomethacin is a cyclooxygenase inhibitor that is routinely used in prostanoid receptor assays (Chen J et al., Current protocols in pharmacology. New York: John Wiley & Sons, Inc., 2001; 4.18.1-4.18.41). Studies of intact and viable isolated tissues, such as the rabbit jejunum (Ferreira S H, Herman A G, Vane J R., Br J Pharmacol 1976; 56:469-477) and human bronchial muscle (Haye-Legrand I, Cerrina J, Raffestin B et al., J Pharmacol Exp Ther 1986; 239:536-541), found the basal output of prostaglandins to be 8-23 pg/mg of tissue at baseline or over 30 min collection periods. In the presence of 1.7 and 2.79 μM indomethacin, the amounts of prostaglandins generated in isolated tissues become negligible (Botting J H, Salzmann R., Br J Pharmacol 1974; 50:119-124; Haye-Legrand I, Cerrina J, Raffestin B et al., J Pharmacol Exp Ther 1986; 239:536-541). The 1 μM concentration of indomethacin in the tissue bath, in our experience, is sufficient to prevent biosynthesis of prostanoids within isolated vascular tissue preparations (Alster P, Wennmalm Å., Eur J Pharmacol 1983; 86:441-446; Chen J et al., Current protocols in pharmacology. New York: John Wiley & Sons, Inc., 2001; 4.18.1-4.18.41). At substantially higher concentrations, indomethacin has been reported to lose selectivity for prostanoid biosynthesis inhibition (Aboulafia J et al., Br J Pharmacol 1976; 58:223-228; Goodfriend T L, Simpson R U., Br J Pharmacol 1981; 72:247-255; Northover B J, Br J Pharmacol 1971; 41:540-551; Sawdy R et al., Br J Pharmacol 1998; 125:1212-1217). […]

rabbit eye conjunctiva = conditions: topical dose of 10 μg (0.03%, 30 μl); cited from earlier work
[4] = system: eyes of conscious Beagle dogs; conditions: cited from earlier work; for effect of L-NAME on elicited ocular surface hyperemia: L-NAME 1% treated eyes, 0-6 h; for conjunctival hyperemia or adverse ocular effects at baseline (time 0): 1% (w/v) topical, dog eyes
[5] = system: rabbit isolated jugular veins; conditions: rabbit jugular vein; cited from earlier work
[6] = bimatoprost 0.1%, latanoprost 0.005%, PGE2 0.01%

## CC(C)OC(=O)CCC/C=C\C[C@@H]1[C@@H](/C=C/[C@@H](O)COc2cccc(C(F)(F)F)c2)[C@H](O)C[C@@H]1O [travoprost]
[1]
  direct stimulation of inflammatory pathways involving adhesion molecules or class II antigens: None of the drugs appeared to induce direct stimulation of inflammatory pathways
  toxicity observed: mild

## CC(C)(C)NC[C@H](O)COc1nsnc1N1CCOCC1 [timolol maleate, (−)-1-tert-butylamino-3-[(4-morpholino-1,2,5-thiodiazol-3yl)oxy]-2-propanol maleate]
[2]
  mean laser-flare photometry readings and mean changes from baseline: no significant differences among the treatment groups

## O=C(O)CCC/C=C\C[C@@H]1[C@H](CNNC(=O)Nc2ccccc2)[C@H]2CC[C@@H]1O2 [SQ 29548]
[3]; latanoprost free acid up to 10^−6 M
  effect of TP antagonist on reversal of the vasorelaxant response to latanoprost free acid: did not block the reversal of the vasorelaxant response

## CC(C)OC(=O)CCC/C=C\C[C@@H]1[C@@H](CC[C@@H](O)CCc2ccccc2)[C@H](O)C[C@@H]1O [latanoprost]
Rabbit eye conjunctiva
  acute effects on blood flow in the conjunctiva: no significant acute effects
[4]; D-NAME treated control eyes, bimatoprost 0.1%, latanoprost 0.005%, scale 0=none, 0.5=trace, 1=mild, 2=moderate, 3=severe
  ocular surface hyperemic response (severity): trace to mild
[4]; [6]
  effect of L-NAME on elicited ocular surface hyperemia: blocked
[1]
  direct stimulation of inflammatory pathways involving adhesion molecules or class II antigens: None of the drugs appeared to induce direct stimulation of inflammatory pathways
  toxicity observed: mild

## CCCCC[C@H](O)/C=C/[C@@H]1[C@@H](C/C=C\CCCC(=O)O)[C@@H](O)C[C@H]1O [PGF2a, prostaglandin F2a]
[5]
  inhibition of response by L-NAME at 100 μM, compared to bimatoprost and latanoprost free acid: less effective

## CCCCC[C@H](O)/C=C/[C@H]1[C@H](O)CC(=O)[C@@H]1C/C=C\CCCC(=O)O [PGE2, prostaglandin E2]
[4]; [6]
  effect of L-NAME on elicited ocular surface hyperemia: had no effect
[4]; PGE2 0.01%, both D-NAME- and L-NAME-treated eyes, scale 0=none to 3=severe
  ocular surface hyperemia severity: mild to moderate

## COC(=O)[C@@H](N)CCCNC(=N)N[N+](=O)[O-] [L-NAME, L-N^G-nitroarginine methyl ester]
[4]
  conjunctival hyperemia or adverse ocular effects at baseline (time 0): did not produce conjunctival hyperemia or any adverse ocular effects

## COC(=O)[C@H](N)CCCN=C(N)N[N+](=O)[O-] [D-NAME]
[4]
  conjunctival hyperemia or adverse ocular effects at baseline (time 0): did not produce conjunctival hyperemia or any adverse ocular effects

## O=C(O)CCC/C=C\C[C@@H]1[C@@H](CC[C@@H](O)CCc2ccccc2)[C@H](O)C[C@@H]1O [Latanoprost free acid, latanoprost free acid]
[3]; concentration range of 10^−10 to 10^−6 M
  contraction of the endothelium-denuded preparation: did not contract
[3]; endothelium-denuded, 10^−5M, latanoprost free acid
  response in endothelium-denuded veins: only contractions
[3]; endothelium-intact histamine precontracted tissues, P≦0.05 paired t-test
  vasorelaxant response in presence of 100 μM L-NAME compared to 100 μM D-NAME control: significantly inhibited
[3]; endothelium-intact preparation
  concentration of maximal vasorelaxation: 10^−7 M
  response at higher concentrations of 10^−6M and 10^−5M: reversal of the relaxant effects
[3]; endothelium-intact tissues, each concentration tested
  difference in effects with and without 1 μM indomethacin: no statistically significant differences
